This is an account of results in patent US20020187945A1, “Modulation of immune response by ribavirin” (priority 1999, published 2002).

One experiment relates to BALB/c and C57BL/6 mice. The experiment in a line: Contact hypersensitivity (CHS) ear response to DNFB in mice. The class given is in vivo, mouse. The note with it: 0.5 mg/kg i.p. at challenge, 24 hours after challenge, FIG. 4. How it is done: The functional effect of this differential effect on B7-1 and B7-2 mediated by RIB was examined in an in vivo murine model of contact hypersensitivity, and a B7-2 dependent immune response (Eur. J. Immunol, 1996. 26: 880-885). Briefly, animals were primed with 2,4-dinitro-1-fluorobenzene (DNFB) (0.3%) epicutaneously on the abdomen and challenged 6 days later on each ear with 0.12% DNFB. Ribavirin-treated animals were injected intraperitoneally at the time of challenge with an optimal dose of 0.5 mg/kg in 50 μl PBS. Ear measurements were taken before challenge and 24 hours after challenge. Response to DNFB was expressed as the difference between the two ear measurements. […] Ear responses in BALB/c mice were augmented following ribavirin (RIB) treatment but were impaired in ribavirin-treated C57BL/6 mice.

In experiment [1] the test system is B7-1. The experiment in a line: B7-1 mRNA (RT-PCR) in human PBMCs with B7-inducing cytokines. In kind it is cell-based. The text has this:
(§1) The differential effect by ribavirin on B7-1 and B7-2 expression as observed in the two mouse strains was examined in human peripheral blood mononuclear cells (PBMCs). Here we used three cytokines, IFNα, IFNβ, and TNFα to induce B7-1 and B7-2 expression. […] Two distinct outcomes were observed.

In experiment [2] the test system is B7-1. The experiment in a line: B7-1 expression by FACS in lymph node cells from DNFB-primed mice, in vitro anti-αβ TCR challenge. The note with it: C57BL/6 lymph node cells, ribavirin 5 μM, FIG. 3 bottom panel. In kind it is cell-based, mouse. How it is done: (§2) The effect of ribavirin on B7-1 expression and B7-2 expression, at the time of challenge, in lymph node cells isolated from Ag-primed BALBc and C57BL/6 mice was examined. Mice were primed epicutaneously with dinitrofluorobenzene (DNFB) 6 days prior to concomitant ribavirin treatment (5 μM) and in vitro challenge using an immobilized anti-αβ TCR antibody. Unexpectedly, we observed opposing effects of ribavirin on DNFB-induced B7-1 expression and B7-2 expression in these two mouse strains.
On the technique in general: In flow cytometry, cells or beads pass a laser one at a time.

The test system of experiment [3] is B7-2. Description: B7-2 expression by FACS in lymph node cells from DNFB-primed mice, in vitro anti-αβ TCR challenge. The class given is cell-based, mouse. Conditions: BALB/c lymph node cells, ribavirin 5 μM, FIG. 3 top panel. As for the experimental part:
as §2

In a further experiment the test system is B7-1 mRNA. The experiment in a line: B7-1 mRNA (RT-PCR/Southern) in lymph node cells of ribavirin-treated CHS mice. In kind it is in vivo, mouse. Conditions: FIG. 5. As for the experimental part: (§3) To determine the effect of ribavirin on the functional role of B7-1 and B7-2 on contact hypersensitivity (CHS) responses, we measured B7-1 and B7-2 mRNA levels in RNA isolated from the lymph node cells of the animals used in the above CHS experiments. Following RT-PCR with specific primers, electrophoresis and Southern blotting, PCR products were analyzed by hybridization with 32P-labeled specific probes. […] In contrast, in C57BL/6 mice, B7-1 mRNA expression was enhanced by ribavirin, but B7-2 mRNA expression was unaffected.

In the next experiment the test system is IL-10. Description: IL-10 levels in human PBMCs with B7-inducing cytokines. In kind it is cell-based.
Excerpt: as §1

Experiment [4] has as its system B7-2. The experiment in a line: B7-2 mRNA (RT-PCR) in human PBMCs with B7-inducing cytokines. In kind it is cell-based.
Excerpt: as §1

The subject of experiment [5] is B7-2. The experiment in a line: B7-2 expression by FACS in IFNα-treated splenocytes from unstimulated mice. The class given is cell-based, mouse. The note with it: with IFNα. The text has this: (§4) We determined the levels of […] and B7-2 by FACS analysis from IFNα-treated splenocytes from unstimulated BALB/c and C57B6 mice in order to determine whether the effect of ribavirin on the functional role of B7-1 and […] was a) inducible in resting, unstimulated lymphocytes, b) required the action of a B7 inducer such as IFNα, or c) elicited the same affects on the two mouse strains upon replacing antigen stimulation with a B7 inducer. […] In contrast, in C57BL/6 splenocytes (bottom panel), IFNα-induced B7-1 expression was enhanced by ribavirin but B7-2 expression was unaffected.

The test system of a further experiment is B7-2 mRNA. The experiment in a line: B7-2 mRNA (RT-PCR/Southern) in lymph node cells of ribavirin-treated CHS mice. The class given is in vivo, mouse. Conditions: FIG. 5. As for the experimental part:
as §3

The next experiment relates to TNFα. Description: TNFα levels in human PBMCs with B7-inducing cytokines. The class given is cell-based.
Excerpt: as §1

In experiment [6] the test system is B7-1. Description: B7-1 expression by FACS in IFNα-treated splenocytes from unstimulated mice. In kind it is cell-based, mouse. The note with it: C57BL/6 splenocytes, with IFNα, FIG. 6 bottom panel.
Excerpt: as §4

Where [7] appears, read: 24 hour incubation with B7-inducing cytokines, FIG. 7 right hand panel (B).
[8] abbreviates: 24 hour incubation with IFNα, IFNβ or TNFα, FIG. 7 left panel (A).
The mark [9] stands for this setting: BALB/c mice of the CHS experiment.
The mark [10] stands for this setting: C57BL/6 mice of the CHS experiment.

Take `NC(=O)c1ncn([C@@H]2O[C@H](CO)[C@@H](O)[C@H]2O)n1` [ribavirin, 1-β-D-Ribofuranosyl-1,2,4-Triazole-3-Carboxamide]: the “Inflammatory ear response to DNFB” value in the experiment on BALB/c and C57BL/6 mice (BALB/c mice) is “augmented”; in the experiment with BALB/c and C57BL/6 mice (C57BL/6 mice), “impaired”. Further, in the experiment on B7-1 [1] (setting [7]), the B7-1 expression entry is on record as “decreased B7-1 expression”. The “B7-1 mRNA expression” value in the experiment with B7-1 [1] (setting [8]) is given as “increased”. Besides, the “B7-1 expression (mean channel fluorescence)” value in the experiment with B7-1 [2] is listed as “enhanced B7-1 expression”. Further, the “B7-2 expression (mean channel fluorescence)” value in the experiment on B7-2 [3] is given as “enhanced B7-2 expression”. The “B7-1 mRNA expression in lymph node cells” value in the experiment on B7-1 mRNA (setting [9]) is on record as “unaffected”; with B7-1 mRNA (setting [10]) it was “enhanced”. For the same compound, in the experiment with IL-10 (setting [7]), the IL-10 levels result was “dropped”. Moreover, the IL-10 result in the experiment with IL-10 (setting [8]) is reported as “concomitant increase”. The B7-2 expression result was “increased B7-2 expression” in the experiment on B7-2 [4] (setting [7]) and “decreased” with B7-2 [4] (setting [8]). Also, the “IFNα-induced B7-2 expression” value in the experiment on B7-2 [5] (BALB/c splenocytes, FIG. 6 top panel) is “augmented”; with B7-2 [5] (C57BL/6 splenocytes, FIG. 6 bottom panel), “unaffected”. Besides, the “B7-2 mRNA expression in lymph node cells” value in the experiment on B7-2 mRNA (setting [9]) is given as “augmented”; in the experiment with B7-2 mRNA (setting [10]), “unaffected”. The TNFα levels entry with TNFα (setting [7]) is “increased”. Further, the TNFα entry in the experiment on TNFα (setting [8]) was “concomitant decrease”. For the same compound, the “IFNα-induced B7-1 expression” value in the experiment on B7-1 [6] is recorded as “enhanced”.
